Assay results: ChEMBL document CHEMBL3044615, “Synthesis and in vitro antimicrobial activity of benzo[b][1,4]thiazin-3(4H)-ones via smiles rearrangement” (2011)
In brackets after ≈: the same amount, converted by molar mass. Activity calls are given as the source filed them. The rule behind the calls is not given here.

How the values were obtained:
Type in all cases: functional
Saccharomyces cerevisiae = assay: Microbiostatic activity against Saccharomyces cerevisiae ATCC 74212 after 48 hr by two fold microdilution technique
Candida albicans = assay: Microbiostatic activity against Candida albicans ATCC 76615 after 48 hr by two-fold microdilution technique
Pseudomonas aeruginosa = assay: Antibacterial activity against Pseudomonas aeruginosa ATCC 27853 after 24 hr by two-fold microdilution technique; settings: ATCC 27853, 24 h
Proteus vulgaris = assay: Antibacterial activity against Proteus vulgaris ATCC 6896 after 24 hr by two-fold microdilution technique; settings: ATCC 6896, 24 h
Escherichia coli = assay: Antibacterial activity against Escherichia coli ATCC 25922 after 24 hr by two-fold microdilution technique; settings: ATCC 25922, 24 h
Micrococcus luteus = assay: Antibacterial activity against Micrococcus luteus NCTC 2665 after 24 hr by two-fold microdilution technique; settings: NCTC 2665, 24 h
Bacillus subtilis = assay: Antibacterial activity against Bacillus subtilis ATCC 6633 after 24 hr by two fold microdilution technique; settings: ATCC 6633, 24 h
Staphylococcus aureus = assay: Antibacterial activity against Staphylococcus aureus ATCC 25923 after 24 hr by two fold microdilution technique; settings: ATCC 25923, 24 h

Compound	MIC (Saccharomyces cerevisiae; ATCC 74212, 48 h) [µg/mL]	MIC (Candida albicans)	MIC (Pseudomonas aeruginosa) [µg/mL]	MIC (Proteus vulgaris) [µg/mL]	MIC (Escherichia coli) [µg/mL]	MIC (Micrococcus luteus) [µg/mL]	MIC (Bacillus subtilis) [µg/mL]	MIC (Staphylococcus aureus) [µg/mL]	MIC (Candida albicans; ATCC 76615, 48 h) [µg/mL]	MIC (Saccharomyces cerevisiae)
O=C1CSc2cccc(Cl)c2N1Cc1ccccc1	128 (≈ 442 µM)	inactive	32 (≈ 110 µM)	64 (≈ 221 µM)	16 (≈ 55.2 µM)	32 (≈ 110 µM)	32 (≈ 110 µM)	32 (≈ 110 µM)	–	–
O=C1CSc2c(Cl)cccc2N1CC1CCCO1 (stereo not given)	128 (≈ 451 µM)	–	128 (≈ 451 µM)	64 (≈ 226 µM)	64 (≈ 226 µM)	32 (≈ 113 µM)	16 (≈ 56.4 µM)	32 (≈ 113 µM)	128 (≈ 451 µM)	–
CCCCCCN1C(=O)CSc2c(Cl)cccc21	64 (≈ 225 µM)	–	32 (≈ 113 µM)	16 (≈ 56.4 µM)	32 (≈ 113 µM)	32 (≈ 113 µM)	16 (≈ 56.4 µM)	32 (≈ 113 µM)	64 (≈ 225 µM)	–
O=C1CSc2c(Cl)cccc2N1Cc1ccccc1	64 (≈ 221 µM)	–	32 (≈ 110 µM)	64 (≈ 221 µM)	64 (≈ 221 µM)	32 (≈ 110 µM)	64 (≈ 221 µM)	64 (≈ 221 µM)	128 (≈ 442 µM)	–
O=C1CSc2cc(Cl)ccc2N1CC1CCCO1 (stereo not given)	128 (≈ 451 µM)	–	64 (≈ 226 µM)	32 (≈ 113 µM)	32 (≈ 113 µM)	16 (≈ 56.4 µM)	64 (≈ 226 µM)	32 (≈ 113 µM)	128 (≈ 451 µM)	–
CCCCCCN1C(=O)CSc2cccc(Cl)c21	–	inactive	64 (≈ 225 µM)	32 (≈ 113 µM)	32 (≈ 113 µM)	32 (≈ 113 µM)	32 (≈ 113 µM)	32 (≈ 113 µM)	–	inactive
CN[C@@H]1[C@H](O[C@H]2[C@H](O[C@H]3[C@H](O)[C@@H](O)[C@H](N=C(N)N)[C@@H](O)[C@@H]3N=C(N)N)O[C@@H](C)[C@]2(O)C=O)O[C@@H](CO)[C@H](O)[C@H]1O [STREPTOMYCIN]	–	inactive	2 (≈ 3.44 µM)	4 (≈ 6.88 µM)	4 (≈ 6.88 µM)	8 (≈ 13.8 µM)	32 (≈ 55 µM)	2 (≈ 3.44 µM)	–	inactive
CC1(C)S[C@@H]2[C@H](NC(=O)[C@H](N)c3ccccc3)C(=O)N2[C@H]1C(=O)O [AMPICILLIN]	–	inactive	128 (≈ 366 µM)	16 (≈ 45.8 µM)	16 (≈ 45.8 µM)	16 (≈ 45.8 µM)	1 (≈ 2.86 µM)	2 (≈ 5.72 µM)	–	inactive
O=C1CSc2cccc(Cl)c2N1C1CCCCC1	128 (≈ 454 µM)	–	32 (≈ 114 µM)	32 (≈ 114 µM)	32 (≈ 114 µM)	16 (≈ 56.8 µM)	32 (≈ 114 µM)	16 (≈ 56.8 µM)	64 (≈ 227 µM)	–
O=C1CSc2ccc(Cl)cc2N1Cc1ccccc1	64 (≈ 221 µM)	–	32 (≈ 110 µM)	32 (≈ 110 µM)	32 (≈ 110 µM)	16 (≈ 55.2 µM)	32 (≈ 110 µM)	16 (≈ 55.2 µM)	64 (≈ 221 µM)	–
CCCCCCN1C(=O)CSc2ccc(Cl)cc21	–	inactive	64 (≈ 225 µM)	32 (≈ 113 µM)	32 (≈ 113 µM)	16 (≈ 56.4 µM)	32 (≈ 113 µM)	32 (≈ 113 µM)	–	inactive
CC(C)(O/N=C(\C(=O)N[C@@H]1C(=O)N2C(C(=O)[O-])=C(C[n+]3ccccc3)CS[C@H]12)c1csc(N)n1)C(=O)O [CEFTAZIDIME]	–	inactive	128 (≈ 234 µM)	4 (≈ 7.32 µM)	4 (≈ 7.32 µM)	16 (≈ 29.3 µM)	2 (≈ 3.66 µM)	4 (≈ 7.32 µM)	–	inactive
O=C1CSc2ccc(Cl)cc2N1CC1CCCO1 (stereo not given)	128 (≈ 451 µM)	–	128 (≈ 451 µM)	64 (≈ 226 µM)	64 (≈ 226 µM)	32 (≈ 113 µM)	32 (≈ 113 µM)	64 (≈ 226 µM)	64 (≈ 226 µM)	–
O=C1CSc2cc(Cl)ccc2N1Cc1ccccc1	–	inactive	64 (≈ 221 µM)	32 (≈ 110 µM)	32 (≈ 110 µM)	16 (≈ 55.2 µM)	64 (≈ 221 µM)	64 (≈ 221 µM)	–	inactive
O=C1CSc2cccc(Cl)c2N1CC1CCCO1 (stereo not given)	128 (≈ 451 µM)	–	64 (≈ 226 µM)	32 (≈ 113 µM)	32 (≈ 113 µM)	32 (≈ 113 µM)	32 (≈ 113 µM)	32 (≈ 113 µM)	64 (≈ 226 µM)	–
O=C1CSc2cc(Cl)ccc2N1C1CCCCC1	128 (≈ 454 µM)	–	32 (≈ 114 µM)	32 (≈ 114 µM)	32 (≈ 114 µM)	16 (≈ 56.8 µM)	32 (≈ 114 µM)	16 (≈ 56.8 µM)	64 (≈ 227 µM)	–
O=C1CSc2c(Cl)cccc2N1C1CCCCC1	64 (≈ 227 µM)	–	64 (≈ 227 µM)	32 (≈ 114 µM)	32 (≈ 114 µM)	32 (≈ 114 µM)	32 (≈ 114 µM)	16 (≈ 56.8 µM)	128 (≈ 454 µM)	–
Clc1ccccc1C(c1ccccc1)(c1ccccc1)n1ccnc1 [CLOTRIMAZOLE]	4 (≈ 11.6 µM)	–	512 (≈ 1480 µM)	512 (≈ 1480 µM)	512 (≈ 1480 µM)	512 (≈ 1480 µM)	512 (≈ 1480 µM)	512 (≈ 1480 µM)	2 (≈ 5.8 µM)	–
CCCCCCN1C(=O)CSc2cc(Cl)ccc21	256 (≈ 902 µM)	–	64 (≈ 225 µM)	64 (≈ 225 µM)	32 (≈ 113 µM)	64 (≈ 225 µM)	32 (≈ 113 µM)	32 (≈ 113 µM)	128 (≈ 451 µM)	–
O=C1CSc2ccc(Cl)cc2N1C1CCCCC1	–	–	128 (≈ 454 µM)	64 (≈ 227 µM)	64 (≈ 227 µM)	32 (≈ 114 µM)	64 (≈ 227 µM)	32 (≈ 114 µM)	256 (≈ 908 µM)	inactive
